Measured values taken from paper PMC4589873, “A pain-inducing centipede toxin targets the heat activation machinery of nociceptor TRPV1” (Nature Communications, 2015).
Entries after “also recorded” stand apart in the source; their conditions may differ. Where a SMILES comes first, the peptide text is derived from it. Bridges are numbered along the chain shown (N, C = ends).

Legend:
[1] = test system: TRPV1; experiment: Infrared laser-induced heat activation, inside-out patch; format: cell-based; conditions: RhTx at 100 nM in pipette, inside-out patch, +80 mV
Description: The experimental set-up for rapidly heating cell membrane containing expressed TRPV1 channels was described in a previous report. Electrophysiological recordings were done in the inside-out mode. Toxin was added in the pipette solution. Laser light of 1,443 nm was generated by a laser diode (Fitel) driven by a controller (Thorlabs). The maximal optic output power of the laser was 250 mW. The laser light was transmitted to the voltage-clamped cell membrane through a single-mode optical fibre (125 μm outer diameter, 10 μm light-conducting core diameter), with the patch pipette tip placed in front of the centre of the optical fibre. Light energy was absorbed by water and converted to heat to drive channel activation. To calibrate the laser heating system, the relationship between laser driving power and temperature was tabulated as previously described. Briefly, a glass pipette was filled with a solution distinct from the bath solution and was centred at the end of the optical fibre. The laser driving power was adjusted to produce junction potential values matching those measured in the same solutions at different temperatures.

[2] = test system: Trpv1−/− mice; experiment: Colonic temperature in TRPV1 knockout mice; format: in vivo, mouse; conditions: Trpv1−/− mice n=3, intraperitoneal, 10 μmol kg^−1
Description: (§1) In vivo effects of RhTx on WT mice or Trpv1^−/− mice were examined according to protocols described previously. For the paw-licking assay, pain was induced in mice by intraplantar injection of 0.1% formalin, capsaicin (1 μmol per paw) or RhTx (1 μmol per paw). Each of the testing materials was dissolved in 100 μl saline. Control mice received the same volume of saline. Injected mice were placed individually into open polyvinyl cages (20 × 40 × 15 cm). Time spent licking the injected paw was recorded by a digital video camera during the following 40 min. For recording colonic temperature from WT or Trpv1^−/− mice, mice equipped with a copper-constantan thermocouple were individually placed in open polyvinyl cages. A data logger was connected to the thermocouple. Mice were injected intraperitoneally with 100 μl saline containing capsaicin or RhTx. The dose of capsaicin or RhTx was 10 μmol kg^−1 for these experiments. Mice in the control group received the same volume of saline.

[3] = test system: TRPV1; experiment: Single-channel recording of TRPV1; format: cell-based; conditions: single-channel analysis
Description: (§2) As described in details in a previous report, macroscopic currents (in whole-cell, inside-out or outside-out configuration) as well as single-channel currents were recorded using a HEKA EPC10 amplifier with the PatchMaster software (HEKA). Both pipette solution and bath solution contained 130 mM NaCl, 3 mM HEPES and 0.2 mM EDTA (pH 7.2). All recordings were performed at room temperature unless otherwise stated. A holding potential of 0 mV was used from which a testing pulse to +80 mV was applied. Statistical difference was determined using the Student’s t-test, and indicated by ** when reaching the significance level P<0.001.

[4] = test system: mTRPV3; experiment: Selectivity recording on mTRPV3; format: cell-based, mouse; conditions: RhTx at 10 μM
Description: as §2
(§3) Supplementary Figure 3. […]
(§4) mTRPV2 (c), mTRPV3 (d) and mTRPV4 (e). (f) Treatment with 10 μM RhTx (red traces)

[5] = molecular target: T1, mTRPV1 (Mus musculus, UniProt Q704Y3); experiment: Inside-out patch, toxin applied from the intracellular side; format: cell-based; conditions: inside-out patch containing mTRPV1, holding 0 mV, testing +80 mV
T1 construct: expressed in transfected cells; host or cells: HEK-293T
Description: as §2

[6] = test system: TRPV1; experiment: Cooling of RhTx- or capsaicin-induced channel activation; format: cell-based; conditions: RhTx at 1 μM
Description: as §2

[7] = test system: WT mice; experiment: Paw-licking assay, intraplantar injection; format: in vivo, mouse; conditions: 1 μmol per paw in 100 μl saline, 40 min observation
Description: as §1
Supplementary Figure 1. Centipede crude venom -induced paw licking. Pain behavior was induced in mice b y intraplan tar injection of centipede crude venom. After crude venom injection, mice were immediately placed individually into open polyvinyl cages (20 × 40 × 15 cm). The time spent licking the injected paw was recorded by digital video camera during 0- 10 minutes […]

[8] = test system: TRPV1; experiment: RhTx-induced desensitization of TRPV1 heat activation, inside-out patch; format: cell-based; conditions: 10 μM RhTx in patch pipette solution, inside-out patches, heating to 55 °C, n=8
Source text: For recording the RhTx-induced desensitization of TRPV1, temperature control was achieved by perfusion of preheated or room-temperature bathing solution. Hot bathing solution were maintained at expected temperature with an SH-27B in-line solution heater controlled by a TC-324C temperature controller (Warner). A solution exchanger RSC-200 with eight separate tubes to deliver room-temperature bathing solution and capsaicin. A TA-29 miniature bead thermistor (Harvard Apparatus) was placed right next to the pipette to ensure accurate monitoring of local temperature.

[9] = test system: mTRPV2; experiment: Selectivity recording on mTRPV2; format: cell-based, mouse; conditions: RhTx at 10 μM
Description: as §2, §3, §4

[10] = Small unilamellar vesicle-binding assay; format: physicochemical
Description: After the film rinsed with pentane was lyophilized at −40 °C overnight, the lipid was suspended with a buffer (10 mM HEPES, 50 mM KCl at pH 7.0). POPE (1-palmitoyl-2-oleoyl-phosphatidylethanolamine, 10 mg ml^−1) and POPG (1-palmitoyl-2-oleoylphosphatidyl-Dl-glycerol, 10 mg ml^−1) were mixed in a 3:1 ratio for POPE/POPG vesicle preparation. In total, 150 mM KCl was used instead of 50 mM KCl. The suspended lipid was then sonicated (in ice water) until the solution became transparent. RhTx was mixed with 10 mg ml^−1 (total concentration) small unilamellar vesicle (SUVs). The mixture was incubated for 40 min at room temperature before ultracentrifugation. Toxin–vesicle mixtures were centrifuged at 304,000g for 150 min. The residual toxins in the supernatant were evaluated by RP-HPLC using a linear gradient of acetonitrile containing 0.1% v/v trifluoroacetic acid.

[11] = test system: hTRPV1; experiment: Whole-cell recording of hTRPV1; format: cell-based, human
Description: as §2
Supplementary Figure 3. […] (a) A representative whole-cell recording of hTRPV1 treated with RhTx or capsaicin. (b) Comparison of the dose-response relationships between hTRPV1 and mTRPV1. […]
mTRPV2 (c), mTRPV3 (d) and mTRPV4 (e). (f) Treatment with 10 μM RhTx (red traces) […]
(1 picture or pasted object on this page, not shown here)

T1 sequence (Q704Y3 whole entry): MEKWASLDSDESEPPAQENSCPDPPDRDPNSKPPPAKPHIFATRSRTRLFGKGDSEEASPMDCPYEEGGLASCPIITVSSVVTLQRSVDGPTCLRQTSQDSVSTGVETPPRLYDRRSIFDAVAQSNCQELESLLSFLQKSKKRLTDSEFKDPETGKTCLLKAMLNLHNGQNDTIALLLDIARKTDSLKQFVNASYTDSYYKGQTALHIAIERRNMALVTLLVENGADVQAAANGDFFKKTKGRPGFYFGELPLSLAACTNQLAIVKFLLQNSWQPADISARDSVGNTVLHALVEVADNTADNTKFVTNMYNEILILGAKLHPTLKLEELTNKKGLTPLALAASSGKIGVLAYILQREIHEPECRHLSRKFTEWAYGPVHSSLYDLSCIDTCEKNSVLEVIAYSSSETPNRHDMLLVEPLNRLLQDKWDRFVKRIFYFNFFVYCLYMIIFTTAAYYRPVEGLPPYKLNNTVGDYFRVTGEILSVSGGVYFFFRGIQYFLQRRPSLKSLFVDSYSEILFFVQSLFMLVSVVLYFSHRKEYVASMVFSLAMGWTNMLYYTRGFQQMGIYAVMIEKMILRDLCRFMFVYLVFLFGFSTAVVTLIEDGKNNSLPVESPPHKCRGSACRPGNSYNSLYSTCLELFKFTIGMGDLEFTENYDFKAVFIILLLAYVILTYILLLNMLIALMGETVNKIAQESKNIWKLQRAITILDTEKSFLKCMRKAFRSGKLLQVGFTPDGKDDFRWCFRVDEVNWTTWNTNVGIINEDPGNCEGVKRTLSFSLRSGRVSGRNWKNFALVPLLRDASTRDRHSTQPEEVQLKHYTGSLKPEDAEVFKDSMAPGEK

## CC[C@H](C)[C@H](NC(=O)[C@@H]1CSSC[C@@H]2NC(=O)[C@H]([C@@H](C)O)NC(=O)[C@H](C(C)C)NC(=O)CNC(=O)[C@H](CC(N)=O)NC(=O)[C@@H](NC(=O)[C@@H]3CCCN3C(=O)[C@H](CC(N)=O)NC(=O)[C@H](CC(N)=O)NC(=O)[C@@H](N)CC(C)C)CSSC[C@H](NC(=O)[C@H](CCCNC(=N)N)NC(=O)[C@H](Cc3ccc(O)cc3)NC(=O)CNC(=O)[C@H](CO)NC(=O)[C@@H]3CCCN3C2=O)C(=O)N[C@@H](CO)C(=O)N[C@@H]([C@@H](C)CC)C(=O)N[C@@H](C(C)C)C(=O)N[C@@H](CC(=O)O)C(=O)N[C@@H](CCCCN)C(=O)N[C@@H](CCC(N)=O)C(=O)N1)C(=O)N[C@@H](CCCCN)C(=O)N[C@@H](CCCCN)C(=O)N[C@@H](CCC(=O)O)C(=O)O [RhTx] (H-LNNPCNGVTCPSGYRCSIVDKQCIKKE-OH; disulfide 5-16, 10-23; N-terminus and C-terminus assumed)
[1]
  effect on infrared laser-induced heat activation, 100 nM: substantially potentiated
[2]
  core (colonic) temperature in knockout mice: absent
[3]
  inward single-channel current amplitude compared with capsaicin-elicited currents: noticeable reduction
  open probability: near unity
[4]
  response of TRPV3: no detectable effect; also recorded: no discernable response
[5]
  activity when applied from the intracellular side: completely ineffective; also recorded: no activity
[6]
  effect of lowering the experimental temperature on agonist-induced channel activation: completely prohibited
[7]
  pain behaviour (paw licking): elicited similar pain behaviour
[8]
  TRPV1 heat response after extended incubation with toxin: selectively desensitized TRPV1 heat activation but not capsaicin activation; also recorded: incapable to respond to heat
[9]
  response of TRPV2: no detectable effect; also recorded: no discernable response
[10]; 0.1 mg RhTx, POPC SUVs 10 mg/ml, 10 mM HEPES, 50 mM KCl, pH 7.0, 40 min room temperature, supernatant RP-HPLC
  RP-HPLC chromatograph before versus after treatment with POPC: No difference
[10]; 0.1 mg RhTx, POPE/POPG 3:1 SUVs 10 mg/ml, 150 mM KCl, 40 min room temperature, supernatant RP-HPLC
  RP-HPLC chromatograph before versus after treatment with POPE/POPG: No difference
[10]; SUVs 10 mg/ml, 40 min at room temperature, ultracentrifugation 304,000g 150 min, supernatant by RP-HPLC
  incorporation into the lipid membrane (initial partition experiments): does not incorporate into the lipid membrane
[11]
  activation of human TRPV1: strongly activated
